Drawing on ChEMBL document CHEMBL6153160, “Novel 3-Cycloaminoindole Compounds as Serotonergic Psychedelic Agents for Treating Psychosis, Mental Illness, and CNS Disorders” (ACS Med Chem Lett, 2025), this text covers IC50 for 3 molecules.

For this experiment, the target named is 5-hydroxytryptamine receptor 2A (Homo sapiens, UniProt P28223). Briefly: Displacement of [3H]-ketanserin from human 5-HT2A receptor incubated for 90 mins by microbeta2 microplate counter assay. A general note: Loss of bound radioactivity is the signal in a displacement assay; it reports binding, not function.
Sequence of 5-hydroxytryptamine receptor 2A (P28223 whole entry): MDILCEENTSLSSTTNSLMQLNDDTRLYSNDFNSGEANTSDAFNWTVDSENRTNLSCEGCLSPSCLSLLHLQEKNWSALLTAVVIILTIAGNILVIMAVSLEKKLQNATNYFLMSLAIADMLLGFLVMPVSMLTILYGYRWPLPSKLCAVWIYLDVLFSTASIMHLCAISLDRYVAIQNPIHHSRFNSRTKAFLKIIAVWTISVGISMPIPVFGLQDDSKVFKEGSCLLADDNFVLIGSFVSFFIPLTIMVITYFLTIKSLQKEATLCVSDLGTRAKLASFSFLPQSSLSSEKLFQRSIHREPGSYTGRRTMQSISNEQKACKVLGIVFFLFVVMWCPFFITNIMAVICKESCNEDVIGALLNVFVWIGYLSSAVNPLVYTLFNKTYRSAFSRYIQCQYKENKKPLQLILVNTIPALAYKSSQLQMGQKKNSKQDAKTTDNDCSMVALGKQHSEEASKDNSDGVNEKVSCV
The term IC50 denotes the concentration at which inhibition is half-maximal. A low value points to higher potency. Molecule `CN(C)CCc1c[nH]c2ccccc12` came in with an IC50 of less than 500 nM.
Regarding `[2H]c1[nH]c2c([2H])c([2H])c([2H])c([2H])c2c1C1CCN(C)C1` (stereo not drawn), the IC50 is less than 500 nM.
`[2H]c1[nH]c2c([2H])c([2H])c([2H])c([2H])c2c1C1CC([2H])([2H])N(C)C1([2H])[2H]` (stereo not drawn): the IC50 was less than 500 nM.
